Assays:
Assay in all cases: Test K pre-/postemergence, mixtures of Cpd. No. 20 with metribuzin or rimsulfuron
Type in all cases: in vivo
[1] = test system: soybean (GLXMA; Glycine max, cv. Pioneer 35T58)
Excerpt: (§1) This test evaluated the effect of mixtures of Cpd. No. 20 with metribuzin or rimsulfuron on several plant species. Seeds of plant species selected from corn (ZEAMD; Zea mays, cv. ‘Pioneer 1184’), soybean (GLXMA; Glycine max, cv. Pioneer 35T58), giant foxtail (SETFA; Setaria faberi), palmer amaranth (AMAPA; Amaranthus palmeri), common waterhemp (AMATU; Amaranthus rudis), mare's tail (ERICA; Conyza canadensis), and common ragweed (AMBEL; Ambrosia artemisiifolia) were planted in pots containing Tama Silt Loam soil and treated preemergence with a directed soil spray using test chemicals formulated in a non-phytotoxic solvent mixture which included a surfactant.
(§2) At the same time, plants selected from these crop and weed species were planted in pots containing Redi-Earth® planting medium (Scotts Company, 14111 Scottslawn Road, Marysville, Ohio 43041) comprising spaghnum peat moss, vermiculite, wetting agent and starter nutrients and treated postemergence with test chemicals formulated in the same manner. Plants ranged in height from 2 to 10 cm and were in the one- to two-leaf stage for the postemergence treatment. Treated plants and untreated controls were maintained in a greenhouse for approximately 14-21 d, after which time all treated plants were compared to untreated controls and visually evaluated for injury. Plant response ratings, summarized in Tables K1 to K4, are based on a 0 to 100 scale where 0 is no effect and 100 is complete control. A dash (-) response means no test result. Test results are presented as a mean of 4 reps.

[2] = test system: palmer amaranth (AMAPA; Amaranthus palmeri)
Excerpt: as §1, §2

[3] = test system: common ragweed (AMBEL; Ambrosia artemisiifolia)
Excerpt: as §1, §2

[4] = test system: mare's tail (ERICA; Conyza canadensis)
Excerpt: as §1, §2

[5] = test system: corn (ZEAMD; Zea mays, cv. ‘Pioneer 1184’)
Excerpt: as §1, §2

[6] = test system: common waterhemp (AMATU; Amaranthus rudis)
Excerpt: as §1, §2

[7] = test system: giant foxtail (SETFA; Setaria faberi)
Excerpt: as §1, §2

Compound: CCS(=O)(=O)c1cccnc1S(=O)(=O)NC(=O)Nc1nc(OC)cc(OC)n1 [Rimsulfuron, rimsulfuron, reference compound]
- GLXMA plant response rating, 0 to 100 scale ([1]; postemergence, 8 g a.i./ha): 75
- GLXMA plant response rating, 0 to 100 scale ([1]; postemergence, 16 g a.i./ha): 93
- GLXMA plant response rating, 0 to 100 scale ([1]; preemergence, 8 g a.i./ha): 0
- GLXMA plant response rating, 0 to 100 scale ([1]; preemergence, 16 g a.i./ha): 0
- AMAPA plant response rating, 0 to 100 scale ([2]; postemergence, 8 g a.i./ha): 60
- AMAPA plant response rating, 0 to 100 scale ([2]; postemergence, 16 g a.i./ha): 60
- AMAPA plant response rating, 0 to 100 scale ([2]; preemergence, 8 g a.i./ha): 33
- AMAPA plant response rating, 0 to 100 scale ([2]; preemergence, 16 g a.i./ha): 40
- AMBEL plant response rating, 0 to 100 scale ([3]; postemergence, 8 g a.i./ha): 40
- AMBEL plant response rating, 0 to 100 scale ([3]; postemergence, 16 g a.i./ha): 60
- AMBEL plant response rating, 0 to 100 scale ([3]; preemergence, 8 g a.i./ha): 0
- AMBEL plant response rating, 0 to 100 scale ([3]; preemergence, 16 g a.i./ha): 43
- ERICA plant response rating, 0 to 100 scale ([4]; postemergence, 8 g a.i./ha): 50
- ERICA plant response rating, 0 to 100 scale ([4]; postemergence, 16 g a.i./ha): 70
- ERICA plant response rating, 0 to 100 scale ([4]; preemergence, 8 g a.i./ha): 95
- ERICA plant response rating, 0 to 100 scale ([4]; preemergence, 16 g a.i./ha): 98
- ZEAMD plant response rating, 0 to 100 scale ([5]; postemergence, 8 g a.i./ha): 0
- ZEAMD plant response rating, 0 to 100 scale ([5]; postemergence, 16 g a.i./ha): 10
- ZEAMD plant response rating, 0 to 100 scale ([5]; preemergence, 8 g a.i./ha): 0
- ZEAMD plant response rating, 0 to 100 scale ([5]; preemergence, 16 g a.i./ha): 0
- AMATU plant response rating, 0 to 100 scale ([6]; postemergence, 8 g a.i./ha): 75
- AMATU plant response rating, 0 to 100 scale ([6]; postemergence, 16 g a.i./ha): 77
- AMATU plant response rating, 0 to 100 scale ([6]; preemergence, 8 g a.i./ha): 51
- AMATU plant response rating, 0 to 100 scale ([6]; preemergence, 16 g a.i./ha): 73
- SETFA plant response rating, 0 to 100 scale ([7]; postemergence, 8 g a.i./ha): 80
- SETFA plant response rating, 0 to 100 scale ([7]; postemergence, 16 g a.i./ha): 97
- SETFA plant response rating, 0 to 100 scale ([7]; preemergence, 8 g a.i./ha): 50
- SETFA plant response rating, 0 to 100 scale ([7]; preemergence, 16 g a.i./ha): 73

Compound: CSc1nnc(C(C)(C)C)c(=O)n1N [Metribuzin, metribuzin, reference compound]
- GLXMA plant response rating, 0 to 100 scale ([1]; postemergence, 62 g a.i./ha): 33
- GLXMA plant response rating, 0 to 100 scale ([1]; postemergence, 125 g a.i./ha): 53
- GLXMA plant response rating, 0 to 100 scale ([1]; preemergence, 62 g a.i./ha): 0
- GLXMA plant response rating, 0 to 100 scale ([1]; preemergence, 125 g a.i./ha): 0
- AMAPA plant response rating, 0 to 100 scale ([2]; postemergence, 62 g a.i./ha): 35
- AMAPA plant response rating, 0 to 100 scale ([2]; postemergence, 125 g a.i./ha): 47
- AMAPA plant response rating, 0 to 100 scale ([2]; preemergence, 62 g a.i./ha): 78
- AMAPA plant response rating, 0 to 100 scale ([2]; preemergence, 125 g a.i./ha): 70
- AMBEL plant response rating, 0 to 100 scale ([3]; postemergence, 62 g a.i./ha): 55
- AMBEL plant response rating, 0 to 100 scale ([3]; postemergence, 125 g a.i./ha): 62
- AMBEL plant response rating, 0 to 100 scale ([3]; preemergence, 62 g a.i./ha): 40
- AMBEL plant response rating, 0 to 100 scale ([3]; preemergence, 125 g a.i./ha): 100
- ERICA plant response rating, 0 to 100 scale ([4]; postemergence, 62 g a.i./ha): 10
- ERICA plant response rating, 0 to 100 scale ([4]; postemergence, 125 g a.i./ha): 13
- ERICA plant response rating, 0 to 100 scale ([4]; preemergence, 62 g a.i./ha): 100
- ERICA plant response rating, 0 to 100 scale ([4]; preemergence, 125 g a.i./ha): 100
- ZEAMD plant response rating, 0 to 100 scale ([5]; postemergence, 62 g a.i./ha): 0
- ZEAMD plant response rating, 0 to 100 scale ([5]; postemergence, 125 g a.i./ha): 10
- ZEAMD plant response rating, 0 to 100 scale ([5]; preemergence, 62 g a.i./ha): 0
- ZEAMD plant response rating, 0 to 100 scale ([5]; preemergence, 125 g a.i./ha): 0
- AMATU plant response rating, 0 to 100 scale ([6]; postemergence, 62 g a.i./ha): 37
- AMATU plant response rating, 0 to 100 scale ([6]; postemergence, 125 g a.i./ha): 82
- AMATU plant response rating, 0 to 100 scale ([6]; preemergence, 62 g a.i./ha): 53
- AMATU plant response rating, 0 to 100 scale ([6]; preemergence, 125 g a.i./ha): 86
- SETFA plant response rating, 0 to 100 scale ([7]; postemergence, 62 g a.i./ha): 0
- SETFA plant response rating, 0 to 100 scale ([7]; postemergence, 125 g a.i./ha): 10
- SETFA plant response rating, 0 to 100 scale ([7]; preemergence, 62 g a.i./ha): 30
- SETFA plant response rating, 0 to 100 scale ([7]; preemergence, 125 g a.i./ha): 80

Reference: patent US12435044B2, “Pyridazinone herbicides and pyridazinone intermediates used to prepare a herbicide” (FMC Corporation, priority 2018, dated 2025)
